Experimental data from article PMC8405639, “2-Carba-lysophosphatidic acid is a novel β-lysophosphatidic acid analogue with high potential for lysophosphatidic acid receptor activation and autotaxin inhibition” (Scientific Reports, 2021).

Key:
[1] = system: extracellular signal-regulated kinase (ERK) phosphorylation; test: Western blot analysis of phosphorylated ERK in HeLa cells; assay type: cell-based; conditions: HeLa cells preincubated with 10 µM Ki16425 for 30 min
Procedure: Figure 3 Effects of 2-carba-lysophosphatidic acid (2carbaLPA) on the phosphorylation of the extracellular signal-regulated kinase (ERK) protein. HeLa cells were preincubated with 10 µM Ki16425 for 30 min at 37 °C and then incubated with 10 µM 2carbaLPA, lysophosphatidic acid (LPA) 18:1, or vehicle for 5 min at 37 °C. Protein levels of phosphorylated ERK, total ERK, and α-tubulin were determined by western blot analysis. The full-length blots are shown in the Supplementary Fig. S2.
HeLa cells were obtained from RIKEN RBC Cell Bank (Tsukuba, Japan). […] Cells were harvested using 0.125 M Tris–HCl (pH 6.8) supplemented with 4% sodium dodecyl sulphate (SDS), 20% glycerol, 10% 2-mercaptoethanol, and 0.01% bromophenol blue. Proteins were separated by SDS–polyacrylamide gel electrophoresis, and the proteins were transferred onto an Immobilon-P Transfer Membrane (Millipore, Burlington, MA, USA). The membrane was incubated with primary antibodies: anti-phospho-ERK (pERK), anti-ERK, and anti-tubulin (all at 1:1,000 dilution, Cell Signaling Technology, Danvers, MA, USA). Next, after washing, the membrane was treated with horseradish peroxidase-conjugated anti-rabbit IgG (1:1000 dilution; Cell Signaling Technology). Immunodetection was performed using an enhanced chemiluminescence system (EzWestLumi plus, ATTO Corporation, Tokyo, Japan) and ImageQuant LAS 4000 (GE healthcare, Buckinghamshire, UK).

hLPA1 = target: T1, hLPA1 (Homo sapiens, UniProt Q92633); test: TGFα-shedding assay, LPA1; assay type: cell-based; conditions: 293A cells, AP-TGFα release
T1 construct: expressed in transfected cells; host or cells: 293A cells
T1 sequence (Q92633 whole entry): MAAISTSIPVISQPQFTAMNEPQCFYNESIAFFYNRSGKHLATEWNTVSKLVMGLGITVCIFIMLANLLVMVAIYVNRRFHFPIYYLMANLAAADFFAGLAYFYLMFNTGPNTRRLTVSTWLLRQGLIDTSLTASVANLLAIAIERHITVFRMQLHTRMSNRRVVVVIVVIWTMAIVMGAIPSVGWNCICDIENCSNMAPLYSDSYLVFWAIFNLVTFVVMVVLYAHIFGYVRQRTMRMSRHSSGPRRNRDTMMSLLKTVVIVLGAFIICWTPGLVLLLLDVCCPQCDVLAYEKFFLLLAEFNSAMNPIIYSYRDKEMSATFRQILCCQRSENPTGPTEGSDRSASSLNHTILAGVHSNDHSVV
Procedure: Figure 4 Agonistic activity of 2-carba-lysophosphatidic acid (2carbaLPA) and cyclic phosphatidic acid (cPA) analogues toward six lysophosphatidic acid (LPA) receptors. 293A cells expressing LPA receptors were stimulated with the indicated concentration of LPA, 2carbaLPA, and cPA analogues. Receptor-specific alkaline phosphatase-tagged transforming growth factor-α release was calculated by subtracting the responses in the empty vector-transfected cells from those in the receptor-expressing cells. Data are represented as standard error of the mean of three independent replicates.
293A cells (Life Technologies, Tokyo, Japan) were cultured in DMEM (Nissui Pharmaceutical, Tokyo, Japan) supplemented with 10% foetal calf serum (Gibco, Waltham, MA, USA) in an incubator at 37 °C and 5% CO2. This assay was conducted according to a modified version of a method described previously. To improve signal detection, cells for the analysis of LPA1, LPA2, LPA4, and LPA5 were transfected with Gα-chimeric proteins, whereas those for LPA4, LPA5, LPA6 analysis were treated with the LPA1–3 antagonist Ki16425. The cells were co-transfected with vectors-expressing human LPA1–6, alkaline phosphatase-tagged TGFα (AP-TGFα). As negative controls, cells transfected with an empty vector instead of the receptor-expressing vector were used. After 24 h, the cells were resuspended in Hank’s balanced salt solution (HBSS), seeded in 96-well plates, and stimulated with cPA analogues administered at tenfold concentration of the final concentration. The cPA analogues were diluted with HBSS, 0.01% protease and fatty acid-free BSA (SERVA Electrophoresis GmbH, Heidelberg, Germany). Cells for LPA4, LPA5, and LPA6 analysis were treated with Ki16425 (final concentration: 10 μM), 5 min before treatment with the cPA analogues. After incubation for 1 h at 37 °C, 80 µL of the supernatant was transferred to fresh 96-well plates. An equal volume of 1 mM p-NPP solution [120 mM Tris–HCl (pH 9.5), 40 mM NaCl, and 10 mM MgCl2] was added to both the supernatant and the cells. Alkaline phosphatase activity was calculated by measuring absorbance at 405 nm using the Cytation 3 plate reader (BioTek, Winooski, VT, USA).

[2] = cPA analogue stability in the 293A cell medium; assay type: in vitro ADME; conditions: 10 µM, 1 h, 37 °C, 293A (HEK) cell medium
Procedure: Supplementary Figure S3. Cyclic phosphatidic acid (cPA) analogue stability in the HEK cell medium. Each cPA analogue (final concentration: 10 µM) was incubated with the HEK cell medium for 1 h at 37 °C. The remaining cPA analogue was quantified using liquid chromatography with tandem mass spectrometry (LC-QqQ) and calculated based on the percentage (%) ratio of the final concentration after incubation to the initial concentration. Data are represented as mean ± standard deviation (n = 3 samples).
293A cells were prepared in Hank’s balanced salt solution (HBSS) in 96-well plates. […] After incubation for 1 h at 37 ℃, 80 µL of the supernatant was collected and mixed with 320 µL of acidic methanol, including LPA 17:0 and cPA 17:0 (final concentration: 0.2 µM each; Avanti Polar Lipids, Alabaster, AL, USA).

Row | SMILES | Effect on 2carbaLPA-induced ERK activation [1] | EC50 (hLPA1; 1 h) | Emax (hLPA1; read-out: Emax ± SEM hLPA1 (converted)) | Compound remaining after incubation [2]
1 | Cc1noc(-c2ccc(CSCCC(=O)O)cc2)c1NC(=O)OC(C)c1ccccc1Cl (stereo not shown) [Ki16425] | inhibited | – | – | –
2 | CCCCCCCCC=CCCCCCCCC(=O)OCC(O)COP(=O)(O)O (stereo not shown) [LPA 18:1, 1-Oleoyl-LPA] | – | 11.4 nM | 26.9% | approximately 70%
